Values of other authors, collected in patent US20210121515A1, “COMPOSITION FOR USE IN THE PREVENTION AND/OR TREATMENT OF OSTEOARTICULAR DISEASES” (NEILOS S.R.L., priority 2018, published 2021).

Assays:
[1] = biological target: T1, mPGES-1 (Homo sapiens, UniProt O14684); details: intact A549 cell assays
T1 construct: with an IC50 of 10 μM in intact A549 cell assays; endogenous in cells; host or cells: A549
T1 sequence (O14684 1-152): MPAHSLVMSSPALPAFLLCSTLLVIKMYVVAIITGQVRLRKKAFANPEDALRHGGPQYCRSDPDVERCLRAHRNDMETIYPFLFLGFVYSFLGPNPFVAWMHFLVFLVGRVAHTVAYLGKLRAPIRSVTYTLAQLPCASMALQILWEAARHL

[2] = test system: carrageenan edema and pleurisy; details: doses of 1 mg/kg; comparable to 5 mg/kg of indomethacin
[3] = test system: NF-κB, COX-2, superoxide dismutase; details: rats

Row | Compound | IC50 [1] | activity in acute inflammation models [2] | levels of COX-2 [3] | levels of NF-κB [3] | levels of superoxide dismutase [3]
1 | C[C@H]1[C@H](C)CC[C@]2(C)CC[C@]3(C)C(=CC[C@@H]4[C@@]5(C)CC[C@@H](O)[C@](C)(C(=O)O)[C@@H]5CC[C@]43C)[C@H]12 [β-boswellic acid] | 10 µM | good activity | – | – | –
2 | O=C(O)[C@H]1O[C@@H](Oc2cc3oc(-c4ccccc4)cc(=O)c3c(O)c2O)[C@H](O)[C@@H](O)[C@@H]1O [baicalin] | – | – | reduce | reduce | increasing
